These results are taken from ChEMBL document CHEMBL1141022, “1,2,3-Triazole derivatives as new cannabinoid CB1 receptor antagonists” (Bioorg Med Chem Lett, 2009).

pEC50, pIC50: −log10 of the molar value. Bounds are passed on as bounds.

For experiment [1], the target named is T1, Cannabinoid receptor 1 (Homo sapiens, UniProt P21554). Put plainly: Displacement of [3H]CP-55940 from human CB1 receptor expressed in HEK293 cells at 10 uM. It counts as cell-based. In general terms: Displacement assays read how much labelled ligand stays bound in the presence of the test substance.
T1 sequence (P21554 whole entry): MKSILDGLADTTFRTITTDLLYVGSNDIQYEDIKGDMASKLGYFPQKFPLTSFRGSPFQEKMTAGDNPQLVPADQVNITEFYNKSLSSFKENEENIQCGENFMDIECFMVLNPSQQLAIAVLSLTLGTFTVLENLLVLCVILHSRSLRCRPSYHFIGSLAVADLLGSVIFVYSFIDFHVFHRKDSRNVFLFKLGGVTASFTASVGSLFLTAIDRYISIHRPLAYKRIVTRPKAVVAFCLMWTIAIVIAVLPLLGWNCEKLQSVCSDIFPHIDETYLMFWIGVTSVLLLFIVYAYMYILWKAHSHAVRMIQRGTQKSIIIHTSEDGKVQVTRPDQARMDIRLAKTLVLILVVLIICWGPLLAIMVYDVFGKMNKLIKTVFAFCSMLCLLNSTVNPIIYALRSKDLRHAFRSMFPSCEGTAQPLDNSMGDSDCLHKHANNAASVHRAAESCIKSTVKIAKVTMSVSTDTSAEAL
A further experiment is filed under the species Homo sapiens. Nature of the experiment: Selectivity ratio of IC50 for human CB2 receptor to IC50 for human CB1 receptor.
The target in experiment [2] is T1, Cannabinoid receptor 1. Nature of the experiment: Antagonist activity at human CB1 receptor expressed in HEK293 cells assessed as inhibition of Eu-GTP binding. It counts as cell-based.
The target of a further experiment is Cannabinoid receptor 2 (Homo sapiens, UniProt P34972). Nature of the experiment: Displacement of [3H]CP-55940 from human CB2 receptor expressed in HEK293 cells. The class given is cell-based.
Sequence of Cannabinoid receptor 2 (P34972 whole entry): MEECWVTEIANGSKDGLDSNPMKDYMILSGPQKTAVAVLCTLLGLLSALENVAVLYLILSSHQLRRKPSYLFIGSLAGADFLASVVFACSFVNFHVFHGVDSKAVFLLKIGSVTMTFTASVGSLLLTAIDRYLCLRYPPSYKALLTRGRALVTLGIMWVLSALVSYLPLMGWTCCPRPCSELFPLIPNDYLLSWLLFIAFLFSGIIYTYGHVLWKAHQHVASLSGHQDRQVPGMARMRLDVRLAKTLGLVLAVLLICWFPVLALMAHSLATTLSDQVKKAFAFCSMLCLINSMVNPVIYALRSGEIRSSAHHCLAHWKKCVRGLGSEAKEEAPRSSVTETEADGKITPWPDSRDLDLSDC
The target of experiment [3] is T1, Cannabinoid receptor 1. Nature of the experiment: biochemical. The class given is cell-based, HEK293.

Usually inhibition stands for how much of the control response was suppressed. A higher inhibition goes with a strong effect. The term pEC50 denotes −log10 of the EC50, conventionally taken in molar units. Broadly, the pIC50 is the negative decadic logarithm of the IC50, by convention in mol/L.

Turning to `O=C(NC1CCCCC1)n1nc(-c2ccc(Cl)cc2)c(-c2ccc(Cl)cc2Cl)n1`, at Cannabinoid receptor 1 [1], the inhibition was 30.5%. Besides, the Ratio IC50 in the experiment filed under Homo sapiens was more than 1000.
At Cannabinoid receptor 1 [1], `CCCCOC(=O)Cn1nnc(-c2ccc(Cl)cc2)c1-c1ccc(Cl)cc1` registered an inhibition of 64.1%. The Ratio IC50 in the experiment filed under Homo sapiens was more than 1000.
`O=C(NC1CCCCC1)n1nc(-c2ccc(Cl)cc2Cl)c(-c2ccc(Cl)cc2Cl)n1` registered an inhibition at Cannabinoid receptor 1 [1] of 29.2%. Further, in the experiment filed under Homo sapiens, the Ratio IC50 is more than 1000.
On Cannabinoid receptor 1 [1], `O=C(Cn1nnc(-c2ccc(Cl)cc2Cl)c1-c1ccc(Cl)cc1Cl)N1CCCCC1` had an inhibition of 55.7%. The Ratio IC50 in the experiment listed under Homo sapiens is more than 1000.
On Cannabinoid receptor 1 [1], `O=C(NCc1ccccc1)n1nc(-c2ccc(Cl)cc2)c(-c2ccc(Cl)cc2Cl)n1` came in with an inhibition of 18.6%. Moreover, the Ratio IC50 in the experiment filed under Homo sapiens was more than 1000.
`O=C(NC12CC3CC(CC(C3)C1)C2)n1nc(-c2ccc(Cl)cc2)c(-c2ccc(Cl)cc2Cl)n1` showed an inhibition at Cannabinoid receptor 1 [1] of 34.5%. In the experiment listed under Homo sapiens, the Ratio IC50 was more than 1000.
For `COc1ccc(CNC(=O)Cn2nc(-c3ccc(Cl)cc3Cl)c(-c3ccc(Cl)cc3Cl)n2)cc1`, on Cannabinoid receptor 1 [2], the pEC50 was 7.25. Besides, the pIC50 on Cannabinoid receptor 2 is less than 5.00. Moreover, the Ratio IC50 in the experiment filed under Homo sapiens was more than 1000.
As for `O=C(Cn1nc(-c2ccc(Cl)cc2Cl)c(-c2ccc(Cl)cc2Cl)n1)NCc1ccccc1F`, on Cannabinoid receptor 1 [2], the pEC50 is 7.63. The same compound had a pIC50 at Cannabinoid receptor 2 of less than 5.00. Further, the Ratio IC50 in the experiment listed under Homo sapiens was more than 1000.
Consider `O=C(Cn1nc(-c2ccc(Cl)cc2Cl)c(-c2ccc(Cl)cc2Cl)n1)Nc1ccccc1`, for which the pEC50 at Cannabinoid receptor 1 [2] was 6.87. The compound also had a pIC50 on Cannabinoid receptor 2 of less than 5.00. The Ratio IC50 in the experiment filed under Homo sapiens is more than 1000.
Turning to `O=C(Cn1nc(-c2ccc(Cl)cc2Cl)c(-c2ccc(Cl)cc2Cl)n1)Oc1ccccc1`, the inhibition at Cannabinoid receptor 1 [1] came out at 14.3%. In addition, the Ratio IC50 in the experiment filed under Homo sapiens is more than 1000.
`CCCCOC(=O)Cn1nnc(-c2ccc(Cl)cc2Cl)c1-c1ccc(Cl)cc1Cl` registered an inhibition on Cannabinoid receptor 1 [1] of 46.1%. For the same compound, the Ratio IC50 in the experiment filed under Homo sapiens was more than 1000.
`O=C(NC12CC3CC(CC(C3)C1)C2)n1nc(-c2ccc(Cl)cc2Cl)c(-c2ccc(Cl)cc2Cl)n1`: the inhibition at Cannabinoid receptor 1 [1] turned out to be 78.9%. In the experiment listed under Homo sapiens, the Ratio IC50 was more than 1000.
Regarding `O=C(Cn1nc(-c2ccc(Cl)cc2Cl)c(-c2ccc(Cl)cc2Cl)n1)NCc1cc(F)ccc1F`, the pIC50 at Cannabinoid receptor 1 [3] is 7.65; on Cannabinoid receptor 2 it was less than 5.00. The negative-log EC50 (pEC50) at Cannabinoid receptor 1 [2] was 7.66. Besides, the Ratio IC50 in the experiment listed under Homo sapiens was more than 1000.
At Cannabinoid receptor 2, `O=C(Cn1nc(-c2ccc(Cl)cc2Cl)c(-c2ccc(Cl)cc2Cl)n1)N1CCCCC1` gave a pIC50 of 5.23.
In the case of `O=C(Cn1nc(-c2ccc(Cl)cc2)c(-c2ccc(Cl)cc2Cl)n1)NCc1ccccc1F`, the pEC50 on Cannabinoid receptor 1 [2] is 6.59. Moreover, the pIC50 on Cannabinoid receptor 2 is less than 5.00. In addition, in the experiment listed under Homo sapiens, the Ratio IC50 is more than 1000.
For `CCCCOC(=O)Cn1nc(-c2ccc(Cl)cc2Cl)c(-c2ccc(Cl)cc2Cl)n1`, the Ratio IC50 in the experiment listed under Homo sapiens is more than 1000.
`O=C(Cn1nnc(-c2ccc(Cl)cc2)c1-c1ccc(Cl)cc1)N1CCCCC1`: the inhibition on Cannabinoid receptor 1 [1] worked out at 33%. The Ratio IC50 in the experiment filed under Homo sapiens was more than 1000.
Regarding `O=C(Cn1nc(-c2ccc(Cl)cc2Cl)c(-c2ccc(Cl)cc2Cl)n1)NCc1ccccc1`, the pEC50 on Cannabinoid receptor 1 [2] is 7.06. This compound also had a pIC50 on Cannabinoid receptor 2 of less than 5.00. Moreover, the Ratio IC50 in the experiment filed under Homo sapiens was more than 1000.
With `O=C(Cn1nc(-c2ccc(Cl)cc2Cl)c(-c2ccc(Cl)cc2Cl)n1)NC1CCCCC1`, the pEC50 on Cannabinoid receptor 1 [2] is 6.69. Besides, the pIC50 at Cannabinoid receptor 2 is less than 5.00. Moreover, the Ratio IC50 in the experiment listed under Homo sapiens was more than 1000.
As to `O=C(Cn1nc(-c2ccc(Cl)cc2)c(-c2ccc(Cl)cc2Cl)n1)NCc1ccccc1`, on Cannabinoid receptor 1 [2], the pEC50 is 6.66. The pIC50 at Cannabinoid receptor 2 was less than 5.00. The Ratio IC50 in the experiment filed under Homo sapiens is more than 1000.
On Cannabinoid receptor 1 [1], `O=C(NC1CCCCC1)n1nc(-c2ccc(Cl)cc2)c(-c2ccc(Cl)cc2)n1` registered an inhibition of 19.9%. In addition, the Ratio IC50 in the experiment filed under Homo sapiens was more than 1000.
On to `O=C(NCc1ccccc1)n1nc(-c2ccc(Cl)cc2Cl)c(-c2ccc(Cl)cc2Cl)n1`, for which the inhibition at Cannabinoid receptor 1 [1] was 23.8%. Further, the Ratio IC50 in the experiment filed under Homo sapiens was more than 1000.
As for `O=C(Cn1nc(-c2ccc(Cl)cc2Cl)c(-c2ccc(Cl)cc2Cl)n1)NCc1ccccc1Cl`, on Cannabinoid receptor 1 [2], the pEC50 is 7.91. This compound also gave a negative-log IC50 (pIC50) at Cannabinoid receptor 2 of less than 5.00. For the same compound, the Ratio IC50 in the experiment listed under Homo sapiens was more than 1000.
As for `O=C(Cn1nc(-c2ccc(Cl)cc2)c(-c2ccc(Cl)cc2Cl)n1)NCc1ccc(F)cc1`, the pEC50 on Cannabinoid receptor 1 [2] was 6.63. This compound had a pIC50 at Cannabinoid receptor 2 of less than 5.00. Besides, the Ratio IC50 in the experiment filed under Homo sapiens was more than 1000.
The matching figures for `O=C(Cn1nc(-c2ccc(Cl)cc2Cl)c(-c2ccc(Cl)cc2Cl)n1)NCc1ccc(Cl)cc1`: 7.75, less than 5.00 and more than 1000.
For `O=C(Cn1nc(-c2ccc(Cl)cc2Cl)c(-c2ccc(Cl)cc2Cl)n1)NCc1cccc(F)c1`, at Cannabinoid receptor 1 [2], the pEC50 was 7.45. At Cannabinoid receptor 2, this compound showed a pIC50 of less than 5.00. In addition, the Ratio IC50 in the experiment filed under Homo sapiens is more than 1000.
Take `O=C(Cn1nc(-c2ccc(Cl)cc2Cl)c(-c2ccc(Cl)cc2Cl)n1)NCc1ccc(F)cc1`: the negative logarithm of the EC50 (pEC50) on Cannabinoid receptor 1 [2] was 7.29. At Cannabinoid receptor 2, this compound had a pIC50 of less than 5.00. Also, the Ratio IC50 in the experiment filed under Homo sapiens was more than 1000.
For the compound `O=C(NC12CC3CC(CC(C3)C1)C2)n1nc(-c2ccc(Cl)cc2)c(-c2ccc(Cl)cc2)n1`, the inhibition at Cannabinoid receptor 1 [1] was 19.7%. Further, in the experiment listed under Homo sapiens, the Ratio IC50 is more than 1000.
